The text below walks through data of patent publication US9982019B2, “Glycopeptide compound or pharmaceutical salt thereof and method for preparing same, and pharmaceutical compositions and applications thereof” (priority 2012, dated 2018).

Bounds are passed on as bounds.

Assay [1] has as its system Feces enterococci (VSE clinical isolates: MEFA 0039). The assay is described as follows: In vitro antibacterial activity, agar two times dilution method, MIC. The settings on record: agar dilution; VSE clinical isolate MEFA 0039. It is filed as cell-based. An excerpt:
(§1) Testing results of in vitro antibacterial activity of some target compounds of the present invention are as follows:
(§2) Drugs: firstly being dissolved in DMSO, and then being diluted to an appropriate concentration with sterile water, and afterwards successively being diluted for twice.
(§3) Determination: referencing the standard of CSSI 2008 version, using a agar two times dilution method, determine the minimum inhibitory concentration (MIC values).
(§4) Feces enterococci (VSE clinical isolates: MEFA 0039); Streptococcus pneumoniae (PISP: ATCC 49619).
(§5) 3. Positive Control Drug is Vancomycin Hydrochloride.
For orientation: In agar dilution, organisms are placed on agar that contains the substance at set levels.

For assay [2], the system named is Streptococcus pneumoniae (PISP: ATCC 49619). The description is as above. It is filed as cell-based. The following applies: agar dilution; PISP ATCC 49619.
Text: as §1, §2, §3, §4, §5

On to `CC(C)CC1C(=O)N(C2C(=O)NC(CC(N)=O)C(=O)NC3C(=O)NC4C(=O)NC(C(=O)NC(C(=O)O)c5cc(O)c(CN6CCOCC6)c(O)c5-c5cc4ccc5O)C(OC4CC(C)(N)C(O)C(C)O4)c4ccc(c(Cl)c4)Oc4cc3cc(c4OC3OC(CO)C(O)C(O)C3OC3CC(C)(NCc4ccc(C(C)C)cc4)C(O)C(C)O3)Oc3ccc(cc3Cl)C2O)CN1C` (centres unmarked) [II9], for which the “MIC Values of Compounds, Enterococci” value in assay [1] came out at 1 µg/mL. For the same molecule, in assay [2], the “MIC Values of Compounds, Streptococcus pneumoniae” value is 0.25 µg/mL.

On to `CCCCCCCCCCNC1(C)CC(OC2c3ccc(c(Cl)c3)Oc3cc4cc(c3OC3OC(CO)C(O)C(O)C3OC3CC(C)(NCCCCCCCCCC)C(O)C(C)O3)Oc3ccc(cc3Cl)C(O)C(NC(=O)C(CC(C)C)N(C)CCCCCCCCCC)C(=O)NC(CC(N)=O)C(=O)NC4C(=O)NC3C(=O)NC2C(=O)NC(C(=O)O)c2cc(O)c(CNCCCC)c(O)c2-c2cc3ccc2O)OC(C)C1O` (centres unmarked) [Compound I4], for which the “MIC Values of Compounds, Enterococci” value in assay [1] was above 8 µg/mL. The “MIC Values of Compounds, Streptococcus pneumoniae” value in assay [2] is above 8 µg/mL.

`CCN(CC)Cc1c(O)cc2c(c1O)-c1cc(ccc1O)C1NC(=O)C3NC(=O)C(CC(N)=O)NC(=O)C(NC(=O)C(CC(C)C)NC)C(O)c4ccc(c(Cl)c4)Oc4cc3cc(c4OC3OC(CO)C(O)C(O)C3OC3CC(C)(NCc4ccc(Br)cc4)C(O)C(C)O3)Oc3ccc(cc3Cl)C(OC3CC(C)(N)C(O)C(C)O3)C(NC1=O)C(=O)NC2C(=O)O` (centres unmarked) [Compound I10]: in assay [1], the “MIC Values of Compounds, Enterococci” value stood at 2 µg/mL. The “MIC Values of Compounds, Streptococcus pneumoniae” value in assay [2] was 0.25 µg/mL.

On to `CCN(CC)Cc1c(O)cc2c(c1O)-c1cc(ccc1O)C1NC(=O)C3NC(=O)C(CC(N)=O)NC(=O)C(N4CN(C)C(CC(C)C)C4=O)C(O)c4ccc(c(Cl)c4)Oc4cc3cc(c4OC3OC(CO)C(O)C(O)C3OC3CC(C)(NCc4ccc(Br)cc4)C(O)C(C)O3)Oc3ccc(cc3Cl)C(OC3CC(C)(N)C(O)C(C)O3)C(NC1=O)C(=O)NC2C(=O)O` (centres unmarked) [II7], for which the “MIC Values of Compounds, Enterococci” value in assay [1] stood at 1 µg/mL. The “MIC Values of Compounds, Streptococcus pneumoniae” value in assay [2] stood at 0.25 µg/mL.
